In general, melting point refers to the temperature, or range, at which the solid turns liquid.

As for `CCCCOCCOc1ccc(-c2ccc3c(c2)C=C(C(=O)Nc2ccc(C(O)c4cc(C)cc[n+]4[O-])cc2)CCN3)cc1` (stereo not shown) [Compound 1, 7-[4-(2-butoxyethoxy)phenyl]-N-[4-[hydroxy(4-methyl-1-oxidopyridin-2-yl)methyl]phenyl]-2,3-dihydro-1H-1-benzazepine-4-carboxamide], the melting point was 198 to 201 °C (dec.). The molecule `CCCCOCCOc1ccc(-c2ccc3c(c2)C=C(C(=O)Nc2ccc(C(O)c4cccc[n+]4[O-])c(OC)c2)CCN3)cc1` (stereo not shown) [Compound 3, 7-[4-(2-butoxyethoxy)phenyl]-N-[4-[hydroxy(1-oxidopyridin-2-yl)methyl]-3-methoxyphenyl]-2,3-dihydro-1H-1-benzazepine-4-carboxamide] displayed a melting point of 116 to 118 °C. For the molecule `CCCCOCCOc1ccc(-c2ccc3c(c2)C=C(C(=O)Nc2ccc(C(O)c4cccc[n+]4[O-])c(Cl)c2)CCN3CC(C)C)cc1` (stereo not shown) [Compound 6, 7-[4-(2-butoxyethoxy)phenyl]-N-[3-chloro-4-[hydroxy(1-oxidopyridin-2-yl)methyl]phenyl]-1-isobutyl-2,3-dihydro-1H-1-benzazepine-4-carboxamide], the melting point was in the range of 105 to 107 °C. Under `CCCCOCCOc1ccc(-c2ccc3c(c2)C=C(C(=O)Nc2ccc(C(O)c4cccc[n+]4[O-])c(C)c2)CCN3)cc1` (stereo not shown) [Compound 7, 7-[4-(2-butoxyethoxy)phenyl]-N-[4-[hydroxy(1-oxidopyridin-2-yl)methyl]-3-methylphenyl]-2,3-dihydro-1H-1-benzazepine-4-carboxamide] stands 179 to 182 °C (dec.); under `CCCCOCCOc1ccc(-c2ccc3c(c2)C=C(C(=O)Nc2ccc(C(O)c4cc(C)cc[n+]4[O-])c(OC)c2)CCN3CC(C)C)cc1` (stereo not shown) [Compound 10, 7-[4-(2-butoxyethoxy)phenyl]-N-[4-[hydroxy(4-methyl-1-oxidopyridin-2-yl)methyl]-3-methoxyphenyl]-1-isobutyl-2,3-dihydro-1H-1-benzazepine-4-carboxamide], 174 to 176 °C; under `CCCCOCCOc1ccc(-c2ccc3c(c2)C=C(C(=O)Nc2ccc(C(O)c4cc(C)cc[n+]4[O-])c(OCC)c2)CCN3)cc1` (stereo not shown) [Compound 11, 7-[4-(2-butoxyethoxy)phenyl]-N-[3-ethoxy-4-[hydroxy(4-methyl-1-oxidopyridin-2-yl)methyl]phenyl]-2,3-dihydro-1H-1-benzazepine-4-carboxamide], 110 to 115 °C. For `CCCCOCCOc1ccc(-c2ccc3c(c2)C=C(C(=O)Nc2ccc(C(O)c4cc(C)cc[n+]4[O-])c(OCC)c2)CCN3CC(C)C)cc1` (stereo not shown) [Compound 12, 7-[4-(2-butoxyethoxy)phenyl]-N-[3-ethoxy-4-[hydroxy(4-methyl-1-oxidopyridin-2-yl)methyl]phenyl]-1-isobutyl-2,3-dihydro-1H-1-benzazepine-4-carboxamide] the value was 108 to 110 °C; for `CCCCOCCOc1ccc(-c2ccc3c(c2)C=C(C(=O)Nc2ccc(C(O)c4cc(C)cc[n+]4[O-])c(C(F)(F)F)c2)CCN3)cc1` (stereo not shown) [Compound 16, 7-[4-(2-butoxyethoxy)phenyl]-N-[4-[hydroxy(4-methyl-1-oxidopyridin-2-yl)methyl]-3-trifluoromethylphenyl]-2,3-dihydro-1H-1-benzazepine-4-carboxamide], 124 to 128 °C. Under `CCCCOCCOc1ccc(-c2ccc3c(c2)C=C(C(=O)Nc2ccc(C(O)c4cc(C)cc[n+]4[O-])c(C(F)(F)F)c2)CCN3CCC)cc1` (stereo not shown) [Compound 17, 7-[4-(2-butoxyethoxy)phenyl]-N-[4-[hydroxy(4-methyl-1-oxidopyridin-2-yl)methyl]-3-trifluoromethylphenyl]-1-propyl-2,3-dihydro-1H-1-benzazepine-4-carboxamide] stands 103 to 105 °C; under `CCCCOCCOc1ccc(-c2ccc3c(c2)C=C(C(=O)Nc2ccc(C(O)c4cccc[n+]4[O-])c(OCC(F)(F)F)c2)CCN3CC(C)C)cc1` (stereo not shown) [Compound 23, 7-[4-(2-butoxyethoxy)phenyl]-1-isobutyl-N-[4-[hydroxy(1-oxidopyridin-2-yl)methyl]-3-(2,2,2-trifluoroethoxy)phenyl]-2,3-dihydro-1H-1-benzazepine-4-carboxamide], 118 to 123 °C. The molecule `CCCCOCCOc1ccc(-c2ccc3c(c2)C=C(C(=O)Nc2ccc(OCc4nccn4CCC)cc2)CCN3CC(C)C)cc1` [Compound 25, 7-[4-(2-butoxyethoxy)phenyl]-1-isobutyl-N-[4-[(1-propylimidazole-2-yl)methoxy]phenyl]-2,3-dihydro-1H-1-benzazepine-4-carboxamide] returned a melting point of 118 to 120 °C. As to `CCCCOCCOc1ccc(-c2ccc3c(c2)C=C(C(=O)Nc2ccc(SCc4nncn4CC(C)C)cc2)CCN3CCC)cc1` [Compound 32, 7-[4-(2-butoxyethoxy)phenyl]-N-[4-[(4-isobutyl-4H-1,2,4-triazol-3-yl)methylthio]phenyl]-1-propyl-2,3-dihydro-1H-1-benzazepine-4-carboxamide], the melting point lay in the range of 130 to 132 °C.

`CCCCOCCOc1ccc(-c2ccc3c(c2)C=C(C(=O)Nc2ccc([S+]([O-])Cc4nncn4CC(C)C)cc2)CCN3CCC)cc1` (stereo not shown) [Compound 33, 7-[4-(2-butoxyethoxy)phenyl]-N-[4-((4-isobutyl-4H-1,2,4-triazol-3-yl)methylsulfinyl]phenyl]-1-propyl-2,3-dihydro-1H-1-benzazepine-4-carboxamide]: the melting point is 186 to 190 °C (dec.). Consider `CCCCOCCOc1ccc(-c2ccc3c(c2)C=C(C(=O)Nc2ccc([S+]([O-])Cc4nnc(C)c(C)n4)cc2)CCN3CC(C)C)cc1` (stereo not shown) [Compound 37, 7-[4-(2-butoxyethoxy)phenyl]-N-[4-[(5,6-dimethyl-1,2,4-triazin-3-yl)methylsulfinyl]phenyl]-1-isobutyl-2,3-dihydro-1H-1-benzazepine-4-carboxamide], for which the melting point was 178 to 183 °C (dec.). For `CCCCOCCOc1ccc(-c2ccc3c(c2)C=C(C(=O)Nc2ccc(SCc4nncn4CCC)c(C(F)(F)F)c2)CCN3CC(C)C)cc1` [Compound 42, 7-[4-(2-butoxyethoxy)phenyl]-1-isobutyl-N-[3-trifluoromethyl-4-[(4-propyl-4H-1,2,4-triazol-3-yl)methylthio]phenyl]-2,3-dihydro-1H-1-benzazepine-4-carboxamide] the value was 131 to 133 °C; for `CCCCOCCOc1ccc(-c2ccc3c(c2)C=C(C(=O)Nc2ccc([S+]([O-])CCc4nncn4CCC)cc2)CCN3CCC)cc1` (stereo not shown) [Compound 52, 7-[4-(2-butoxyethoxy)phenyl]-1-propyl-N-[4-[2-(4-propyl-4H-1,2,4-triazol-3-yl)ethylsulfinyl]phenyl]-2,3-dihydro-1H-1-benzazepine-4-carboxamide], 93 to 101 °C. `CCCCOCCOc1ccc(-c2ccc3c(c2)C=C(C(=O)Nc2ccc([S+]([O-])Cc4nncn4CCC)nc2)CCN3CC(C)C)cc1` (stereo not shown) [Compound 54, 7-[4-(2-butoxyethoxy)phenyl]-1-isobutyl-N-[2-(4-propyl-4H-1,2,4-triazol-3-yl)methylsulfinylpyridin-5-yl]-2,3-dihydro-1H-1-benzazepine-4-carboxamide]: the melting point was in the range of 135 to 138 °C. Under `CCCCOCCOc1ccc(-c2ccc3c(c2)C=C(C(=O)Nc2ccc(CCCn4cnnc4)cc2)CCN3CCC)cc1` [Compound 64, 7-[4-(2-butoxyethoxy)phenyl]-1-propyl-N-[4-[3-(4H-1,2,4-triazol-4-yl)propyl]phenyl]-2,3-dihydro-1H-1-benzazepine-4-carboxamide] stands 191 to 194 °C. For `CCCCOCCOc1ccc(-c2ccc3c(c2)C=C(C(=O)Nc2ccc(SCc4n[nH]c(=O)n4CCC)cc2)CCN3CC(C)C)cc1` [Compound 65, 7-[4-(2-butoxyethoxy)phenyl]-1-isobutyl-N-[4-[(4-propyl-1H-1,2,4-triazol-5-on-3-yl)methylthio]phenyl]-2,3-dihydro-1H-1-benzazepine-4-carboxamide] the value was 98 to 101 °C; for `CCCCOCCOc1ccc(-c2ccc3c(c2)C=C(C(=O)Nc2ccc([C@H](O)c4ccccn4)cc2)CCN3C=O)cc1` [Compound 75, 7-[4-(2-butoxyethoxy)phenyl]-1-formyl-N-[4-[(S)-hydroxy(2-pyridyl)methyl]phenyl]-2,3-dihydro-1H-1-benzazepine-4-carboxamide], 130 to 134 °C. Under `CCCCOCCOc1ccc(-c2ccc3c(c2)C=C(C(=O)Nc2ccc([C@@H](O)c4ccccn4)cc2)CCN3C=O)cc1` [Compound 76, 7-[4-(2-butoxyethoxy)phenyl]-1-formyl-N-[4-[(R)-hydroxy(2-pyridyl)methyl]phenyl]-2,3-dihydro-1H-1-benzazepine-4-carboxamide] stands 110 to 112 °C; under `CCCCOCCOc1ccc(-c2ccc3c(c2)C=C(C(=O)Nc2ccc([C@H](O)c4cccc[n+]4[O-])cc2)CCN3C=O)cc1` [Compound 77, 7-[4-(2-butoxyethoxy)phenyl]-1-formyl-N-[4-[(S)-hydroxy(1-oxidopyridin-2-yl)methyl]phenyl]-2,3-dihydro-1H-1-benzazepine-4-carboxamide], 120 to 125 °C. `CCCCOCCOc1ccc(-c2ccc3c(c2)C=C(C(=O)Nc2ccc([C@@H](O)c4cccc[n+]4[O-])cc2)CCN3C=O)cc1` [Compound 78, 7-[4-(2-butoxyethoxy)phenyl]-1-formyl-N-[4-[(R)-hydroxy(1-oxidopyridin-2-yl)methyl]phenyl]-2,3-dihydro-1H-1-benzazepine-4-carboxamide] registered a melting point of 104 to 106 °C. For `CCCCOCCOc1ccc(-c2ccc3c(c2)C=C(C(=O)Nc2ccc([C@H](O)c4ccccn4)cc2)CCN3C(=O)C(F)(F)F)cc1` [Compound 79, 7-[4-(2-butoxyethoxy)phenyl]-N-[4-[(S)-hydroxy(2-pyridyl)methyl]phenyl]-1-trifluoroacetyl-2,3-dihydro-1H-1-benzazepine-4-carboxamide] the value was 100 to 102 °C; for `CCCCOCCOc1ccc(-c2ccc3c(c2)C=C(C(=O)Nc2ccc([C@H](O)c4cccc[n+]4[O-])cc2)CCN3C(=O)C(F)(F)F)cc1` [Compound 80, 7-[4-(2-butoxyethoxy)phenyl]-N-[4-[(S)-hydroxy(1-oxidopyridin-2-yl)methyl]phenyl]-2,3-dihydro-1-trifluoroacetyl-1H-1-benzazepine-4-carboxamide], 107 to 110 °C.

The values are drawn from patent US7262185B2, “Benzazepine derivative, process for producing the same, and use” (Takeda Chemical Industries Ltd., priority 2001, dated 2007).
